Measured values reported in patent publication US7985434B2, “Compositions of atomized or lyophilized maca (Lepidium meyenii) extracts and atomized or lyophilized yacon (Smallanthus sanchifolius) extracts as adjuvants in the treatment of different conditions” (Universidad Peruana Cayetano Heredia, priority 2009, dated 2011).

Tests used:
Bacillus subtilis = conditions: between six sesquiterpene lactones tested; cited from earlier work
spermatozoids [1] = assay: Number of spermatozoids in mice; format: in vivo
From the text: (§1) In the inventors' laboratory, the effect of a synthetic macamide, N-benzyl-5-oxo-6E, 8E-octadecadienamide, has been tested, which had no effect in the count or daily production of spermatozoids (Gonzales, 2006 page 104). […] Most of the biological activity is rather found in the more polar fractions (Gonzales, 2006; 2006a; Valerio & Gonzales, 2005).

spermatozoids [2] = assay: Count or daily production of spermatozoids (synthetic macamide); format: in vivo; conditions: inventors' laboratory (Gonzales, 2006 page 104)
From the text: as §1

Fluctuanine
antibacterial activity (Bacillus subtilis): greatest antibacterial activity

CCCCCCCCCCCCCCCC(=O)NCc1ccccc1 [N-benzyl-hexadecanamide]
effect on the number of spermatozoids (spermatozoids [1]): not been observed

CCCCCCCCC/C=C/C=C/C(=O)CCCC(=O)NCc1ccccc1 [N-benzyl-5-oxo-6E, 8E-octadecadienamide]
effect in the count or daily production of spermatozoids (spermatozoids [2]): no effect
